Measured values from patent US20230406803A1, “TROPOLONE DERIVATIVES AND TAUTOMERS THEREOF FOR IRON REGULATION IN ANIMALS” (Kinesid Therapeutics, Inc, priority 2020, published 2023).

Assay: Ligand facilitated Fe(III) efflux from liposomes
Assay type: biochemical
Set-up: unit not given here
Conditions: efflux rate k at 10 μM ligand concentration; ferrozine absorbance 562 nm, 120 min kinetic read
How it was run: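 POPC/cholesterol liposomes loaded with Fe(III) citrate in MES/Tris pH 7.0, diluted to 1 mM phosphorus in ascorbate buffer with 1 mM ferrozine outside. Ligand at 1.25–40 µM; absorbance at 562 nm read every 60 s for 120 min. Efflux rate k fitted by single-phase association, averaged over triplicates, compared at 10 µM.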

CC(C)c1cccc(=O)c(O)c1 [hinokitiol, reference compound]
Liposome Fe transport kefflux at 10 μM: 7.77
